Tests used:
FasL = experiment: Quantitative real-time PCR, FasL expression in HUVEC; assay type: cell-based, human; details: HUVEC treated with pyrodach-4
Method: (§1) Evaluations of selected gene expressions in Human Umbilical Vein Endothelial Cells (HUVEC) and Human Ovarian Cancer Cells by quantitative reverse transcriptase polymerase chain reaction (PCR)
Quantitative real-time PCR experiments were performed to estimate the expression of a selection of targeted genes. HUVEC cells (Lonza Walkersville, Frederick, Md.) were cultured on 0.1% gelatin-coated petri dishes by following standard protocols recommended by the vendor in a humidified incubator by maintaining 5% CO2 at 37° C. […]
(§2) Both treated and untreated cancer cells were maintained in RPMI 1640 medium with 10% fetal bovine serum, 2 μmol L-glutamine, 100 units/mL penicillin-streptomycin and 0.25 units/mL insulin solution, at 37° C. with 5% CO2. […] The quantity and purity of RNA were determined by UV spectroscopy (NanoDrop 2000 Thermo Scientific, Wilmington, Del.). A minimum absorbance ratio index (ratio of the absorbance measured at 260 nm over that at 280 nm) of 1.9 was used as an acceptable purity. […] The target gene was labeled with a blue dye (FAM, absorbance: 494 nm, emission: 518 nm) while the reference gene was tagged with a green dye (VIC, absorbance: 538 nm, emission: 554 nm). […]
(§3) The threshold cycle number (Ct), the point at which the fluorescence of the qPCR reaction just exceeds the threshold fluorescence of the detection system, was determined. […]

PTEN [1] = experiment: Quantitative real-time PCR, PTEN expression in A2780 cells; assay type: cell-based, human; details: for Normalized expression of PTEN: control = 1.0
Method: as §1
(§4) Quantitative real-time PCR experiments were performed to estimate the expression of a selection of targeted genes. HUVEC cells (Lonza Walkersville, Frederick, Md.) were cultured on 0.1% gelatin-coated petri dishes by following standard protocols recommended by the vendor in a humidified incubator by maintaining 5% CO2 at 37° C. Human epithelial ovarian cancer cells (A2780) and cisplatin-resistant cells (A2780/C30) were cultured in RPMI 1640 with or without cisplatin (7 μM) and pyrodach-4 (180 μM) for 0, 3, 12 and 24 hours. […] HUVECs were treated with or without cisplatin (7 μM) or pyrodach-4 (90 or 180 μM) for various durations ranging from 1 hr. to 6 hrs.
Both treated and untreated cancer cells were maintained in RPMI 1640 medium with 10% fetal bovine serum, 2 μmol L-glutamine, 100 units/mL penicillin-streptomycin and 0.25 units/mL insulin solution, at 37° C. with 5% CO2. RNA was isolated from both the treated and untreated cells. […] The quantity and purity of RNA were determined by UV spectroscopy (NanoDrop 2000 Thermo Scientific, Wilmington, Del.). A minimum absorbance ratio index (ratio of the absorbance measured at 260 nm over that at 280 nm) of 1.9 was used as an acceptable purity. […] The target gene was labeled with a blue dye (FAM, absorbance: 494 nm, emission: 518 nm) while the reference gene was tagged with a green dye (VIC, absorbance: 538 nm, emission: 554 nm). The cDNA concentrations were selected such that the threshold cycle (Ct) values for the target genes were between 17 and 32, most sensitive for the fluorescence detection by ABI StepOnePlus™ instrument used for the measurements.
as §3

Fas = experiment: Expression of key genes with and without p53 inhibitor (Table 3): Fas; assay type: cell-based, human; details: positive = manifold increase, negative = decrease vs untreated cells
Method: as §4
as §2, with “CO2. RNA was isolated from both the treated and untreated cells.” for “CO2.”

PTEN [2] = experiment: Expression of key genes with and without p53 inhibitor (Table 3): PTEN; assay type: cell-based, human; details: positive = manifold increase, negative = decrease vs untreated cells
Method: as §4
as §2, with “CO2. RNA was isolated from both the treated and untreated cells.” for “CO2.”

[3] = tested on: yeast deletion collection; experiment: Genome-wide fitness assay in yeast (pooled deletion strains); assay type: cell-based
Excerpt: The around 6000 strains in the yeast deletion collection can be studied in a single culture by using a microarray to detect the 20 bp DNA “barcodes” or “tags” contained in each strain. Barcode intensities are compared across time-points or across conditions to analyze the relative fitness of each strain. This development of the pooled fitness assay has greatly facilitated the functional annotation of the yeast genome by making genome-wide gene-deletion studies faster and easier, and has led to the development of high throughput methods for studying drug action in yeast. Pooled screens can be used for identifying gene functions, measuring the functional relatedness of gene pairs in order to group genes into pathways, identifying drug targets, and determining a drug's mechanism of action. This process involves five main steps: preparing aliquots of pooled cells, pooled growth, isolation of genomic DNA and PCR amplification of the barcodes, array hybridization (or next generation sequencing), and data analysis.
The pooled fitness assay involves five main steps (FIG. 3). First, the deletion collection is grown on solid media in arrayed format and the resulting cells are pooled and frozen to make cell aliquots that will be used for starting growth experiments. Cells are then grown in the desired conditions, typically for 5 to 20 generations. The barcodes from the resulting cell samples are prepared for hybridization by isolation of the genomic DNA and PCR amplification of the barcodes. The barcodes are amplified in two reactions to prevent crosstalk between the uptag and downtag primers. The resulting PCR products are then hybridized to tag arrays with one array needed per cell sample. Data is then analyzed to determine differences in strain representation between pairs of samples.
To analyze the genome wide effects of pyrodach-2 and -4, we screened 2 collections of strains, 1200 essential genes as heterozygote deletion mutants (reducing functional gene dose from 2 to 1) and 4800 non-essential genes as complete deletions (reducing functional gene dose from 2 to 0). Both compounds were screened at the highest dose possible (200 μM final concentration) to increase the likelihood of finding compound-specific sensitive strains.
Fitness profiling of pooled deletion strains involves […] main steps: • 1. Strains are first pooled at approximately equal abundance. • 2. The pool is grown competitively in the condition of choice and a control condition. If a gene is sensitive to the treatment condition, the strain carrying this deletion will grow more slowly and become under-represented relative to the control culture (purple strain). Resistant strains will grow faster and become over-represented (not shown). • 3. Genomic DNA is isolated from cells harvested at the end of pooled growth, and barcodes are amplified from the genomic DNA with universal primers. • 4. PCR products are then hybridized to an array that detects the tag sequences, giving tag intensities for the two samples. • 5. The treatment and control sample are then compared to determine the relative fitness of each strain. Note that only the purple strain is described as sensitive to the condition. While the red strain grows more slowly than the blue strain in the treatment, this growth difference in not of interest because it matches that seen in the control.

trans-(±)-1,2-cyclohexanediamine-trans-dihydroxo(pyrophosphato) platinum(IV) [Pyrodach-4]
Over-expression of FasL (FasL): 2-4 fold
Expression of the PTEN gene compared to control (PTEN [1]): 5.5 fold
Normalized expression of PTEN (PTEN [1]; pyrodach-4 alone): 5.5
Normalized expression of PTEN (PTEN [1]; pyrodach-4 in the presence of p53 inhibitor PTF-α): 0.8
Expression of Fas (Fas; Pyrodach-4 + PFT-α): 5.5
Expression of Fas (Fas; Pyrodach-4 treatment only): 11.0
Expression of PTEN (PTEN [2]; Pyrodach-4 + PFT-α): −1.3
Expression of PTEN (PTEN [2]; Pyrodach-4 treatment only): 5.5
Tolerability by the yeast cell (few sensitive strains) ([3]; highest dose possible, 200 μM final concentration): well tolerated by the cell
Functions enriched among sensitive strains ([3]; yeast deletion strains, 200 μM final concentration): 1) iron and copper transport and 2) metal-regulated transcription factors
Sensitivity of DNA damage/repair genes (NER, HRR, PRR) ([3]; yeast deletion strains, phosphaplatins at 200 μM final concentration): not a single gene involved in DNA repair or other DNA metabolic processes showed any sensitivity as a mutant

Source: patent publication US20130236568A1, “PHOSPHAPLATINS HAVING ANTI-ANGIOGENIC, ANTI-METASTATIC, AND PRO-APOPTOTIC PROPERTIES AND USES THEREOF” (Ohio University, priority 2011, published 2013)
